The source of these data is ChEMBL document CHEMBL5550131, “Medicinal chemistry strategies toward broad-spectrum antiviral agents to prevent next pandemics” (Eur J Med Chem, 2024).

As a reminder, the IC50 is the concentration at which inhibition is half-maximal. Broadly, the EC50 is the midpoint of the concentration-response curve.

Data set [1] deals with Human alphaherpesvirus 1. As to the kind of experiment: Antiviral activity against HSV 1 infected in African green monkey Vero cells assessed as reduction in plaque formation incubated for 36 hrs by crystal violet staining based assay. The class given is functional, organism-based. As to conditions: Human alphaherpesvirus 1, Vero.
Data set [2] is described as follows: Inhibition of Influenza A virus RNA-dependent RNA polymerase.
Data set [3] addresses Dihydroorotate dehydrogenase (quinone), mitochondrial (Homo sapiens, UniProt Q02127). The data set is described as follows: Inhibition of DHOH (unknown origin).
Data set [4] can be described thus: clinical. As to conditions: human, in vivo, iv, 5 mg/kg.
Description: Elimination half life in human at 5 mg/kg, iv
Data set [5] concerns rhinovirus B14. The data set is described as follows: Antiviral activity against human Rhinovirus 14 infected in H1-HeLa cells incubated for 3 days by crystal-violet staining based analysis. The class given is functional, organism-based. Particulars: Rhinovirus B, 72 h.
Data set [6] concerns Enterovirus. As to the kind of experiment: Antiviral activity against Enterovirus infected in human H1-HeLa cells incubated for 3 days by crystal violet staining based plaque counting analysis. It is filed as functional, organism-based. Particulars: 72 h.
The subject of data set [7] is Influenza A virus. As to the kind of experiment: Anti-influenza activity against Influenza A virus infected in MDCK cells assessed as reduction in virus-induced cytopathic effect incubated for 48 hrs by CCK-8 assay. It is filed as functional, organism-based. For orientation: Protection from cytopathic effect is a common read-out in antiviral testing.
A short description of data set [8]: Inhibition of Hepatitis C virus NS5B RNA dependent RNA polymerase. Also noted: species or system Hepacivirus hominis.
A short description of data set [9]: Elimination half life in human. The class given is ADME. Particulars: read-out: beta t1/2 (converted).

Dihydroorotate dehydrogenase (quinone), mitochondrial, sequence (Q02127 whole entry): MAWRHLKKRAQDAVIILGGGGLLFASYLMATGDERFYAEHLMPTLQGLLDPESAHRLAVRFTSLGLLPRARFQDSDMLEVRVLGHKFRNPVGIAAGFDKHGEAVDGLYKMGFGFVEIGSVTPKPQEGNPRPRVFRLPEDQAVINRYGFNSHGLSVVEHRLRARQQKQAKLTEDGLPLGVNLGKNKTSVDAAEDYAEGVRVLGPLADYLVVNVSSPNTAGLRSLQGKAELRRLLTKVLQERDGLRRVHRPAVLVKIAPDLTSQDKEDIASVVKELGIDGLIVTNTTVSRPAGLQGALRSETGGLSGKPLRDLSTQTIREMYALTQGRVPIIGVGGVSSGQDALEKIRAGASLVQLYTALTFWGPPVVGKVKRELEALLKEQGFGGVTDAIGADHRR

Consider `C=CCNC1=C2C[C@@H](C)C[C@H](OC)[C@H](O)[C@@H](C)/C=C(\C)[C@H](OC(N)=O)[C@@H](OC)/C=C/C=C(\C)C(=O)NC(=CC1=O)C2=O`, for which the half-maximal inhibitory concentration (IC50) in data set [1] was found to be 0.0078 µM. On to `NC(=O)c1nc(F)cn([C@@H]2O[C@H](COP(=O)(O)OP(=O)(O)OP(=O)(O)O)[C@@H](O)[C@H]2O)c1=O`, for which the IC50 in data set [2] was determined as 0.341 µM. As for `CN(/N=C/c1ccccc1C(=O)O)c1nc(-c2ccccc2Cl)cs1`, the IC50 in [3] was 0.0075 µM. On to `CCC(CC)COC(=O)[C@H](C)N[P@](=O)(OC[C@H]1O[C@@](C#N)(c2ccc3c(N)ncnn23)[C@H](O)[C@@H]1O)Oc1ccccc1`, for which the half-life in [4] is 0.48 h. Consider `COc1ccc(OCCCCCCn2ccnc2)c(Cl)c1`, for which the EC50 in data set [5] and in data set [6] was 10 µM in each case. For `O=[N+]([O-])c1ccc(CNc2ccc3ncsc3c2)cc1`, in data set [7], the IC50 is 3.36 µM. The compound `C[C@@]1(O)[C@H](O)[C@@H](CO)O[C@H]1n1ccc2c(N)ncnc21` [BETA-2'-C-METHYL-7-DEAZA-ADENOSINE] displayed a half-inhibitory concentration (IC50) in [8] of 5 µM. In the case of `N#C[C@@]1(c2ccc3c(N)ncnn23)O[C@H](COP(=O)(O)OP(=O)(O)OP(=O)(O)O)[C@@H](O)[C@H]1O` [RDV-TP], the half-life in [9] was 26.6 h.
